In brackets after ≈: the same amount, converted by molar mass. Like-named read-outs stand apart in the source and are kept apart here.
Legend:
S. aureus = test: MIC susceptibility testing (modified NCCLS, 384-well); format: cell-based; conditions: Staphylococcus aureus, read-out: MIC
Procedure: The NCCLS (National Committee for Clinical Laboratory Standards), method to determine MIC's of antimicrobial compounds is modified for high-throughput screening. All stocks of tested compounds are prepared in either water or in DMSO depending on solubility. At the highest concentration, DMSO content should not exceed 0.5%. Briefly, twenty 2-fold serial dilutions of test compounds from the highest concentration are made in a 384-well microtiter plate. Each well is inoculated with testing bacteria in broth to a final concentration of approximately 1–1.5×10^6 cells/ml. Bacterial growth is determined by the increase of optical density at 600 nm using a microplate reader (Tecan SpectraFluor Plus). The MIC is defined as the lowest concentration at which bacterial growth (equivalent to visible growth) was inhibited after 16 to 18 hours of incubation at the appropriate temperature required for the bacteria growth.
Using the assay provided above, the potency of NB2046 was compared to triclosan.

E. aerogenes = test: as above; format: cell-based; conditions: Klebsiella aerogenes
Procedure: The NCCLS (National Committee for Clinical Laboratory Standards), method to determine MIC's of antimicrobial compounds is modified for high-throughput screening. All stocks of tested compounds are prepared in either water or in DMSO depending on solubility. At the highest concentration, DMSO content should not exceed 0.5%. Briefly, twenty 2-fold serial dilutions of test compounds from the highest concentration are made in a 384-well microtiter plate. […] Bacterial growth is determined by the increase of optical density at 600 nm using a microplate reader (Tecan SpectraFluor Plus).

CSCCC(NC=O)C(=O)NC(CC(C)C)C(=O)Oc1cc(Cl)ccc1Oc1ccc(Cl)cc1Cl (centres unmarked) [NB2046, 2-(2-formylamino-4-methylsulfanyl-butyrylamino)-4-methyl-pentanoic acid 5-chloro-2-(2,4-dichloro-phenoxy)-phenyl ester]
MIC (S. aureus; ATCC11632, S. aureus ATCC 11632, Exp. #1, Table 3): ≤ 125 ng/mL
MIC (S. aureus; ATCC11632, S. aureus ATCC 11632, Exp. #2, Table 3): ≤ 125 ng/mL
MIC (S. aureus; ATCC 11632 / MSSA, MSSA ATCC 11632, Exp. #1, Table 4): 32000 ng/mL (≈ 56900 nM)
MIC (S. aureus; ATCC 11632 / MSSA, MSSA ATCC 11632, Exp. #2, Table 4): 16000 ng/mL (≈ 28500 nM)
MIC (S. aureus; ATCC 11632 / MSSA, MSSA ATCC 11632, Table 5): 0.977 ng/mL (≈ 1.74 nM)
MIC (S. aureus; ATCC13301, S. aureus ATCC 13301, Exp. #1, Table 3): ≤ 125 ng/mL
MIC (S. aureus; ATCC13301, S. aureus ATCC 13301, Exp. #2, Table 3): ≤ 125 ng/mL
MIC (S. aureus; ATCC 13301 / MSSA, MSSA ATCC 13301, Table 5): 0.015 ng/mL (≈ 0.0267 nM)
MIC (S. aureus; ATCC14154, S. aureus ATCC 14154, Exp. #1, Table 3): ≤ 125 ng/mL
MIC (S. aureus; ATCC14154, S. aureus ATCC 14154, Exp. #2, Table 3): ≤ 125 ng/mL
MIC (S. aureus; ATCC 14154 / MSSA, MSSA ATCC 14154, Table 5): 0.977 ng/mL (≈ 1.74 nM)
MIC (S. aureus; ATCC33591, S. aureus ATCC 33591, Exp. #1, Table 3): ≤ 125 ng/mL
MIC (S. aureus; ATCC33591, S. aureus ATCC 33591, Exp. #2, Table 3): ≤ 125 ng/mL
MIC (S. aureus; ATCC 33591 / MSSA, MSSA ATCC 33591, Table 5): 15.6 ng/mL (≈ 27.8 nM)
MIC (S. aureus; ATCC33592, S. aureus ATCC 33592, Exp. #1, Table 3): ≤ 125 ng/mL
MIC (S. aureus; ATCC33592, S. aureus ATCC 33592, Exp. #2, Table 3): ≤ 125 ng/mL
MIC (S. aureus; ATCC 33592 / MSSA, MSSA ATCC 33592, Table 5): 0.488 ng/mL (≈ 0.868 nM)
MIC (S. aureus; ATCC33593, S. aureus ATCC 33593, Exp. #1, Table 3): ≤ 125 ng/mL
MIC (S. aureus; ATCC33593, S. aureus ATCC 33593, Exp. #2, Table 3): ≤ 125 ng/mL
MIC (S. aureus; ATCC 33593 / MSSA, MSSA ATCC 33593, Table 5): 0.488 ng/mL (≈ 0.868 nM)
MIC (S. aureus; ATCC 33594 / MSSA, MSSA ATCC 33594, Exp. #1, Table 4): ≤ 125 ng/mL
MIC (S. aureus; ATCC 33594 / MSSA, MSSA ATCC 33594, Exp. #2, Table 4): ≤ 125 ng/mL
MIC (S. aureus; ATCC43300, S. aureus ATCC 43300, Exp. #1, Table 3): ≤ 125 ng/mL
MIC (S. aureus; ATCC43300, S. aureus ATCC 43300, Exp. #2, Table 3): ≤ 125 ng/mL
MIC (S. aureus; ATCC 43300 / MSSA, MSSA ATCC 43300, Table 5): 0.977 ng/mL (≈ 1.74 nM)
MIC (S. aureus; ATCC700260, S. aureus ATCC 700260, Exp. #1, Table 3): ≤ 125 ng/mL
MIC (S. aureus; ATCC700260, S. aureus ATCC 700260, Exp. #2, Table 3): ≤ 125 ng/mL
MIC (S. aureus; ATCC 700260 / MSSA, MSSA ATCC 700260, Exp. #1, Table 4): ≤ 125 ng/mL
MIC (S. aureus; ATCC 700260 / MSSA, MSSA ATCC 700260, Exp. #2, Table 4): 4000 ng/mL (≈ 7120 nM)
MIC (S. aureus; ATCC 700260 / MSSA, MSSA ATCC 700260, Table 5): 0.031 ng/mL (≈ 0.0552 nM)
MIC (S. aureus; ATCC700698, S. aureus ATCC 700698, Exp. #1, Table 3): ≤ 125 ng/mL
MIC (S. aureus; ATCC700698, S. aureus ATCC 700698, Exp. #2, Table 3): ≤ 125 ng/mL
MIC (S. aureus; ATCC 700698 / MSSA, MSSA ATCC 700698, Table 5): 3.91 ng/mL (≈ 6.95 nM)
MIC (S. aureus; ATCC700699, S. aureus ATCC 700699, Exp. #1, Table 3): 16000 ng/mL (≈ 28500 nM)
MIC (S. aureus; ATCC700699, S. aureus ATCC 700699, Exp. #2, Table 3): 8000 ng/mL (≈ 14200 nM)
MIC (S. aureus; ATCC 700699 / MRSA, MRSA ATCC 700699, Exp. #1, Table 4): 32000 ng/mL (≈ 56900 nM)
MIC (S. aureus; ATCC 700699 / MRSA, MRSA ATCC 700699, Exp. #2, Table 4): 32000 ng/mL (≈ 56900 nM)
MIC (S. aureus; ATCC 700699 / MSSA, MSSA ATCC 700699, Table 5): ≥ 4000 ng/mL
MIC (S. aureus; ATCC700787, S. aureus ATCC 700787, Exp. #1, Table 3): ≤ 125 ng/mL
MIC (S. aureus; ATCC700787, S. aureus ATCC 700787, Exp. #2, Table 3): ≤ 125 ng/mL
MIC (S. aureus; ATCC 700787 / MSSA, MSSA ATCC 700787, Table 5): 7.81 ng/mL (≈ 13.9 nM)
MIC (S. aureus; ATCC700788, S. aureus ATCC 700788, Exp. #1, Table 3): ≤ 125 ng/mL
MIC (S. aureus; ATCC700788, S. aureus ATCC 700788, Exp. #2, Table 3): ≤ 125 ng/mL
MIC (S. aureus; ATCC 700788 / MSSA, MSSA ATCC 700788, Table 5): 62.5 ng/mL (≈ 111 nM)
MIC (S. aureus; ATCC700789, S. aureus ATCC 700789, Exp. #1, Table 3): ≤ 125 ng/mL
MIC (S. aureus; ATCC700789, S. aureus ATCC 700789, Exp. #2, Table 3): ≤ 125 ng/mL
MIC (S. aureus; ATCC 700789 / MSSA, MSSA ATCC 700789, Table 5): 15.6 ng/mL (≈ 27.8 nM)
MIC (E. aerogenes; ATCC13048, E. aerogenes ATCC 13048, Exp. #1, Table 3): 1000 ng/mL (≈ 1780 nM)
MIC (E. aerogenes; ATCC13048, E. aerogenes ATCC 13048, Exp. #2, Table 3): 1000 ng/mL (≈ 1780 nM)
MIC (E. aerogenes; ATCC29009, E. aerogenes ATCC 29009, Exp. #1, Table 3): 250 ng/mL (≈ 445 nM)

Source: patent publication US7163923B2, “Peptide deformylase activated prodrugs” (Celmed Oncology (USA), Inc., priority 2001, dated 2007)
